Results from US11890279B2, “Quinolines that modulate SERCA and their use for treating disease” (Neurodon Corporation, priority 2020, dated 2024).

How the values were obtained:
SERCA (SR vesicles) = assay: Activation of SERCA, increase in Vmax; type: biochemical
Description: Test compounds were characterized over a range of concentrations using an NADH-linked, enzyme-coupled ATPase assay. Each well contained 2 mg or 7 mg of SR vesicles (optimized for skeletal or cardiac SR, respectively), 50 mM MOPS (pH 7.0), 100 mM KCl, 5 mM MgCl2, 1 mM EGTA, 0.2 mM NADH, 1 mM phosphoenol pyruvate, 5 IU pyruvate kinase, 5 IU lactate dehydrogenase, and 3.5 mg/mL A23187 (a calcium ionophore), and CaCl2 was added to set free [Ca2+] to the specific values. The assay was started upon addition of ATP at a final concentration of 5 mM, and read in a SpectraMax Plus microplate spectrophotometer and the ATPase activities were fitted using the Hill function.

[1] = Pharmacokinetics in Sprague Dawley rats; type: in vivo, rat; details: Sprague Dawley rats
Description: Blood was drawn at 5 min, 15 min, 30 min, 1 hr, 2 hrs, 4 hrs, 6 hrs, and 8 hrs into EDTA containing tubes and plasma was harvested by centrifugation. Plasma (25 μL) was treated with acetonitrile (125 μL) containing an internal standard. The sample was then centrifuged for 5 min at 4,000 rpm in a tabletop centrifuge and the filtrate was collected. The filtrate was injected onto a Thermo Betasil C18 HPLC column 5 (50×2.1 mm). Mobile Phase A was water with 0.1% formic acid. Mobile Phase B was acetonitrile with 0.1% formic acid. […] An API Sciex 4000 equipped with a turbo ion spray source was used for all analytical measurements. A positive ion MRM method was developed. Peak areas of the product ion were measured against the peak areas of the internal standard. Data was fit using WinNonLin (Pharsight Corporation, Mountain View, CA).

[2] = system: APPSWE/PSEN1dE9 double-transgenic mice; assay: Alzheimer's model behavioral test, Morris water maze; type: in vivo, mouse; details: 10 mg/kg IP daily for 4 weeks; vs vehicle
Description: Briefly, the mice were shown a visible platform that was subsequently removed. The distance that the mice swim searching for the platform was measured, with a shorter distance indicating increased memory. […] Motor coordination, strength, and balance was assessed using the Rotarod test (FIG. 6, B). Mice were first trained until they could remain on a rotarod revolving at 16 rpm for three consecutive 120 sec trials. The next day the mice were placed back on the rotarod for a single trial at 18 rpm (maximum duration 120 sec). The duration a mouse could remain on the rotarod was recorded, and the mouse was then returned to its home cage. The speed of the rotarod was then increased to 21 rpm, and all mice were given another test trial. This process was repeated for rotarod speeds of 24, 27, 30, 33, and 36 rpm. All the speeds were repeated twice for the mice in different groups, interval 30 min every time. The Mean values of two tests were analyzed. The mice maintained longer time on the rotarod with more ability of motor coordination, strength and balance.

[3] = biological target: human serotonin (5-hydroxytryptamine) 5-HT2B (Homo sapiens (Human), UniProt P41595); assay: Selectivity panel of 164 targets; details: 10 μM in duplicate; one of only 4 hits among 164 targets
Description: The methods used here for each target were adapted from the scientific literature to maximize reliability and reproducibility. Reference standards were run as an integral part of each essay to ensure the validity of the results obtained.

[4] = system: HeLa cells overexpressing BI-1; assay: Effect of a SERCA agonist on [Ca2+]ER (ER cameleon); type: cell-based; details: 24 hrs treatment, ER cameleon YFP/CFP
Description: To directly measure ER Ca^2+ content, a genetically encoded Ca^2+ indicator, ER cameleon, was used. HeLa cells were transfected with ER-cameleon encoding plasmid for 2 days before analysis. Cells were treated with a test compound for 24 hrs and imaged in Ca^2+-free HBSS upon addition of thapsigargin to deplete ER stores. Emission ratio imaging of the ER cameleon was accomplished using a 430/24 excitation filter, 450-nm dichroic mirror, and two emission filters (475/40 for CFP and 535/25 for YFP). The fluorescence ratio of YFP/CFP is a measure of relative ER Ca^2+ levels.

[5] = Pharmacokinetics in CD-1 mice; type: in vivo, mouse; details: for F / AUC / Cmax / half-life: CD-1 mice; for F: 10 mg/kg P.O. vs 2 mg/kg i.v.; for AUC / Cmax / half-life: mouse, plasma, 2 mg/kg i.v. or 10 mg/kg P.O.
Procedure, shortened: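 CD-1 mice (triplicate) dosed 2 mg/kg i.v. or 10 mg/kg oral gavage, formulated 1 mg/mL in DMSO/Tween 80/water (10/10/80). EDTA plasma sampled 0.25–24 h, acetonitrile-precipitated and quantified by positive-ion MRM LC/MS/MS against internal standard; PK parameters fitted from concentration–time data.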

ob/ob mice = assay: Glucose (GTT) and insulin (ITT) tolerance tests in ob/ob mice; type: in vivo, mouse; details: vs vehicle
Description: For the GTT, D-glucose dissolved in 0.9% NaCl was delivered intraperitoneally at a dose of 1 g/kg. The blood glucose level was measured 0, 15, 30, 60, 90, and 120 min after glucose administration. For the ITT, insulin was administered intraperitoneally at a dose of 1 IU/kg. The blood glucose level was measured 0, 15, 30, 60, 90, and 120 min after insulin administration. Glucose levels were measured in blood samples drawn from the tail vein using OneTouch Ultra 2 Meter (LifeScan, Inc.).

APP-PS1 mice = assay: Aβ deposition, thioflavin S staining; type: in vivo, mouse; details: 10 mg/kg ip, 4 weeks, vs saline
Description: Mice were transcardially perfused with ice-cold PBS (3 mL) followed by 4% paraformaldehyde (5 mL). Brains were extracted and fixed overnight in 30% sucrose-cryoprotectant solution. Coronal hippocampal sections […] thick were cut on a cryostat and collected in TBS (0.1 M Tris, 0.9% saline, pH 7.4). Thioflavin S Staining: Free-floating hippocampal sections were washed with TBS (4×3 min). The sections were soaked in 0.5% thioflavin S (in 50/50 ethyl alcohol/distilled water, Sigma-Aldrich) for 10 min, followed by 2×3 min washes with 50% ethyl alcohol. Sections were washed again with TBS (2×3 min), mounted with minimal drying, and coverslipped with anti-fade mounting medium PVA-DABCO for microscopy. Confocal images of immunolabeled tissue were obtained using 4× and 10× objective lenses on the Olympus Fluoview confocal microscope. Density of amyloid plaques was quantified by averaging the percent area staining positive (thresholded above background staining, as determined by software parameters and experimenter confirmation) within the hippocampus and cortex from 3-5 sections from each experimental animal using MetaMorph Software (Molecular Devices). There were no significant differences in the intensity of background threshold values across animal strains or treatment conditions (p>0.05). The experimenter was blind to animal strain and treatment condition. […] Mice were ˜6 months of age.

Sequence of human serotonin (5-hydroxytryptamine) 5-HT2B (P41595 whole entry): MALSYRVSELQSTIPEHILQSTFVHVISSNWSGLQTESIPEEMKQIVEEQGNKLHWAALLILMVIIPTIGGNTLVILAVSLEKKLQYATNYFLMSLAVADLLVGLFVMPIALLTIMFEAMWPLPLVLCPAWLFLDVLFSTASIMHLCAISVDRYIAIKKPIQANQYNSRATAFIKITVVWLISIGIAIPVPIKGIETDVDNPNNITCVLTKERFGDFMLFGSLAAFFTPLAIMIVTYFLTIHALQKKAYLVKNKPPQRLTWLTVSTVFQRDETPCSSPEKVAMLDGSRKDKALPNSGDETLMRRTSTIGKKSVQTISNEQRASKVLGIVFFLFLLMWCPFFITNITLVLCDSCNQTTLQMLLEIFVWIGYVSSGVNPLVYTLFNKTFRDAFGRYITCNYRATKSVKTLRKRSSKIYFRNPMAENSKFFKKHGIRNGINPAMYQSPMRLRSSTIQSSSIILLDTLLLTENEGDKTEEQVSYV

SMILES | Increase in Vmax at 10 μM (SERCA (SR vesicles)) | CLobs ([1]; listed under oral pharmacokinetic properties) [mL/min/kg] | Cmax ([1]; rat, plasma, oral, 2 mg/kg P.O.) [nM] | AUC(0-t) ([1]; rat, plasma, oral, 2 mg/kg P.O., read-out: AUClast) [µM·h] | total distance in hidden platform test (Morris water maze) [2] | response against human 5-HT2B [3] | [Ca^2+]ER [4] | F [5] [%] | AUC [5] [ng·h/mL] | Cmax [5] [nM] | half-life [5] [min] | hyperglycemic response to i.p. glucose challenge (GTT) (ob/ob mice; day 7 post-injection) | insulin-stimulated glucose deposal (ITT) (ob/ob mice; day 10 post-injection) | amyloid plaques stained with Thioflavin S (APP-PS1 mice) | pharmacokinetic properties as measured by CMAX, AUC and F (%) ([5]; compared with other SERCA modulators, see Table 6)
Cc1ccc2cccc(NC(=O)c3ccc(OC(C)C)cc3)c2n1 [Compound A12, 4-Isopropoxy-N-(2-methylquinolin-8-yl)benzamide] | A′ (A′ represents an increase greater than 50%) | 251 | 260 | 0.41 | a decrease in total distance | significant responses | significantly restored | 2.3 | 25.1 | 200 | 13.4 | significantly reduced | strongly enhanced | reduced | 
Cc1ccc2cccc(NC(=O)c3ccc(N(C)C)cc3)c2n1 [Compound C18, 4-N,N-Dimethylamino-N-(2-methylquinolin-8-yl)benzamide] |  |  |  |  |  |  |  | 35 | 380 | 900 | 53.4 |  |  |  | significantly improved pharmacokinetic properties
